Laboratory results taken from patent EP1203770A1 (priority 1992, dated 1994).
Like-named read-outs stand apart in the source and are kept apart here.

Molecular target: T1, HIV-1 protease (Human immunodeficiency virus type 1 group M subtype B, UniProt P04585)
T1 construct: The protease (or proteinase), consisting of only 99 amino acids, is among the smallest enzymes known
Test: In vitro HIV protease inhibitory assay (HIV Protease FITC Assay)
Assay type: biochemical
Conditions: for inhibition at 0.123 µM / inhibition at 0.37 µM / inhibition at 1.1 µM / inhibition at 3.3 µM / inhibition at 10 µM / inhibition at 30 µM / inhibition at 1 µM / inhibition at 100 µM: read-out: HIV-1 Protease % Inhib
Experimental: The HIV protease screening assay is based on a fluorescently labeled substrate which can be resolved from nonlabeled cleavage product using avidin-polystyrene particles, 0.7-0.9 µm. The substrate is biotinylated at the amino terminal arginine and fluorescently labeled with fluorescein isothiocynate (FITC) at the carboxyl terminal lysine. […] Substrate (20 µl of 0.2 µM), sample (10 µl of desired concentraion), and enzyme (10 µl of 0.1 µM) are added to a 96 well pandex plate. The assay is run in 0.1 M sodium acetate buffer at pH 5.5 in the presence of 1.0 M sodium chloride and 0.05% NP-40 and incubated in the dark for one hour at room temperature. Avidin coated polystyrene beads {40 µl of 0.1% (w/v)} are added and the incubation is continued in the dark for an additional half hour. The labeled cleavage product is separated from the unreacted substrate via filtration and is read on the Idexx Screen Machine. The data are analyzed by appropriate computer algorithms to ascertain percent inhibition values.

| Structure (SMILES) | inhibition at 0.123 µM (HIV-1 Dose 0.123 uM) | inhibition at 0.37 µM (HIV-1 Dose 0.370 uM) | inhibition at 1.1 µM (HIV-1 Dose 1.100 uM) | inhibition at 3.3 µM (HIV-1 Dose 3.300 uM) | inhibition at 10 µM (HIV-1 Dose 10.000 uM) | inhibition at 30 µM (HIV-1 Dose 30.000 uM) | other results |
| --- | --- | --- | --- | --- | --- | --- | --- |
| CCCCC1(Cc2ccccc2)CC(O)=C(C(CCc2ccccc2)c2ccccc2)C(=O)O1 (centres unmarked) [Example 218, 2H-Pyran-2-one, 6-butyl-5,6-dihydro-3-(1,3-diphenylpropyl)-4-hydroxy-6-phenylmethyl-] | < 10% | < 10% | 21.2% | 46% | 59.3% | 58.2% | – |
| CCC(CCOC1CCCCO1)c1cc(O)c(C(c2ccccc2)C2CC2)c(=O)o1 (centres unmarked) [Example 67] | – | – | – | – | – | – | HIV-1 Protease % Inhib (HIV-1 Dose 0.123 uM): <10%; HIV-1 Protease % Inhib (HIV-1 Dose 0.370 uM): 32.64%; HIV-1 Protease % Inhib (HIV-1 Dose 1.100 uM): 72.63%; HIV-1 Protease % Inhib (HIV-1 Dose 3.300 uM): 92.3%; HIV-1 Protease % Inhib (HIV-1 Dose 10.000 uM): 106.66%; HIV-1 Protease % Inhib (HIV-1 Dose 30.000 uM): 118.42%; Ki (read-out: HIV-1 FITC Ki): 84 nM |
| CCC(C1=C(O)CC(c2ccccc2)(C2CCCCC2)OC1=O)c1cccc(O)c1 (centres unmarked) [Example 31, 5,6-Dihydro-4-hydroxy-6-cyclohexyl-6-phenyl-3-[1-(3-hydroxyphenyl)propyl]-2H-pyran-2-one] | – | – | – | – | – | – | Ki: 610 nM; inhibition at 1 µM: 18.7%; inhibition at 10 µM: 81%; inhibition at 100 µM: 86% |
| CCC(CC1CCCN(S(=O)(=O)c2ccc(C)cc2)C1)c1cc(O)c(C(c2ccccc2)C2CC2)c(=O)o1 (centres unmarked) [Example 137, 3-[2-[3-(Cyclopropylphenylmethyl)-4-hydroxy-2-oxo-2H-pyran-6-yl]butyl]-1-[(4-methylphenyl)sulfonyl]-piperidine] | < 10% | < 10% | 23% | 57.2% | 80.2% | 79.7% | – |
| CCC(Cc1ccccc1)c1cc(O)c(C(c2cccc(NC(=O)Nc3ccc(Br)cc3)c2)C2CC2)c(=O)o1 (stereo not drawn) [Example 215, 3-(α-Cyclopropyl-meta-[(4-bromophenylaminocarbonyl)amino]benzyl)-6-(α-ethylphenethyl)-4-hydroxy-2H-pyran-2-one] | < 10% | < 10% | < 10% | 16.1% | 23.1% | 28.8% | – |
| CCC(C1=C(O)CC2(CCC(=O)CC2)OC1=NO)c1ccccc1 (centres unmarked) [Example 123, 4-Hydroxy-3-(1-phenyl-propyl)-1-oxa-spiro[5.5]undec-3-ene-2,9-dione monooxime] | < 10% | < 10% | < 10% | 14.8% | 39.6% | 72% | – |
| O=c1oc(CCC(F)(F)F)cc(O)c1C(c1ccccc1)C1CC1 (centres unmarked) [Example 139, 3-(Cyclopropylphenylmethyl)-4-hydroxy-6-(3,3,3-trifluoropropyl)-2H-pyran-2-one] | < 10% | < 10% | < 10% | 27.9% | 58% | 67.1% | – |
| CCC(Cc1cccc(Cl)c1)c1cc(O)c(C(c2ccccc2)C2CC2)c(=O)o1 (stereo not drawn) [Example 156, 3-(α-cyclopropylbenzyl)-4-hydroxy-6-(α-ethyl-m-chlorophenethyl)-2H-pyran-2-one] | < 10% | 24.2% | 64.4% | 82.6% | 87.3% | 92.3% | Ki (read-out: HIV-1 FITC Ki): 65 nM |
| CCC(CC1CCCCN1S(=O)(=O)c1ccc(C)cc1)c1cc(O)c(C(c2ccccc2)C2CC2)c(=O)o1 (centres unmarked) [Example 140, 2-[2-(3-(Cyclopropylphenylmethyl)-4-hydroxy-2-oxo-2H-pyran-6-yl]butyl]-1-[(4-methylphenyl)sulfonyl]-piperidine] | < 10% | 10.5% | 38.6% | 70.2% | 81.6% | 77.1% | – |
| CCC(Cc1ccc(Br)cc1)c1cc(O)c(C(c2ccccc2)C2CC2)c(=O)o1 (stereo not drawn) [Example 158, 3-(α-cyclopropylbenzyl)-4-hydroxy-6-(α-ethyl-p-bromophenethyl)-2H-pyran-2-one] | 15.7% | 44.2% | 70.5% | 87% | 100% | 96.1% | inhibition at 100 µM (HIV-1 Dose 100.000 uM): 115%; Ki (read-out: HIV-1 FITC Ki): 55 nM |
| CCC(CCc1ccccc1)c1cc(O)c(C(c2ccccc2)C2CC2)c(=O)o1 (centres unmarked) [Example 99, 3-(Cyclopropyl-phenyl-methyl)-6-(1-ethyl-3-phenyl-propyl)-4-hydroxy-pyran-2-one] | – | – | – | – | 99.6% | – | inhibition at 1 µM (HIV-1 Dose 1.000 uM): 71.5%; inhibition at 100 µM (HIV-1 Dose 100.000 uM): 90.7% |
